The source of these data is EP4001279A1, “NOVEL SPIROPYRROLIDINE DERIVED ANTIVIRAL AGENTS” (Enanta Pharmaceuticals, Inc., priority 2020, dated 2022).

Each structure is given as a SMILES string.

In the test the test system is 229E human corona virus (hCoV). As to the kind of experiment: 229E live virus assay (CPE, ATPlite readout in MRC-5 cells). Type of test: cell-based, hCoV-229E. As to conditions: Human coronavirus 229E, MRC5, hCoV-229E live virus, MOI 0.05, ATPlite readout, run in duplicate. For orientation: ATP-based viability assays read luminescence as a measure of living cells.
For `CC(C)(C)C[C@H](NC(=O)c1cn(-c2ccc(Cl)cc2)nn1)C(=O)N1C[C@]2(C[C@H]1C#N)C(=O)Nc1ccccc12` [Example 140], the 50% effective concentration (EC50) (in general, the concentration that produces a half-maximal response) is less than 100 nM.

As for `[2H]C([2H])([2H])N(C(=O)c1cc2c(F)cc(F)cc2[nH]1)[C@@H](CC(C)(C)F)C(=O)N1C[C@]2(C[C@H]1C#N)C(=O)Nc1cc(C(F)(F)F)ccc12` [Example 472, N-((S)-1-((3R,5'S)-5'-cyano-2-oxo-6-(trifluoromethyl)spiro[indoline-3,3'-pyrrolidin]-1-yl)-4-fluoro-4-methyl-1-oxopentan-2-yl)-4,6-difluoro-N-(methyl-d3)-1H-indole-2-carboxamide], the EC50 is less than 100 nM.

Consider `CC(C)(C)C[C@H](NC(=O)OC(C)(C)c1ccc(F)cc1)C(=O)N1C[C@]2(C[C@H]1C#N)C(=O)Nc1ccc(Cl)cc12` [Example 496], for which the concentration for a half-maximal effect (EC50) is greater than 1000 nM.

`Cc1cccc(C(F)(F)C(=O)N(C)[C@@H](CC(C)(C)F)C(=O)N2C[C@]3(C[C@H]2C#N)C(=O)Nc2ccc(Cl)cc23)n1` [Example 486] registered a 50% effective concentration (EC50) of 100 to 1000 nM.

As for `CC(C)C[C@@H](C(=O)N1C[C@]2(C[C@H]1C#N)C(=O)Nc1ccccc12)N(C)C(=O)c1cnc2ccccc2c1` [Example 213], the EC50 is less than 100 nM.

`CC(C)C[C@@H](C(=O)N1C[C@]2(C[C@H]1C#N)C(=O)Nc1ccccc12)N(C)C(=O)c1ccc2cnn(C)c2c1` [Example 224] came in with an EC50 of less than 100 nM.

Take `CC(C)C[C@@H](C(=O)N1C[C@]2(C[C@H]1C#N)C(=O)Nc1ccccc12)N(C)C(=O)c1ccnn1C` [Example 203]: the EC50 was less than 100 nM.

`CC(C)C[C@@H](C(=O)N1C[C@]2(C[C@H]1C#N)C(=O)Nc1ccccc12)N(C)C(=O)c1ccc2nc(N)sc2c1` [Example 225] displayed a concentration for a half-maximal effect (EC50) of 100 to 1000 nM.

Consider `Cc1c(C(=O)N(C)[C@@H](CC(C)C)C(=O)N2C[C@]3(C[C@H]2C#N)C(=O)Nc2ccccc23)[nH]c2cc(F)cc(F)c12` [Example 47], for which the half-maximal effective concentration (EC50) fell in the range of 100 to 1000 nM.

With `CN(C(=O)C(F)(F)c1ccncc1)[C@@H](CC(C)(C)F)C(=O)N1C[C@]2(C[C@H]1C#N)C(=O)Nc1ccc(Cl)cc12` [Example 480], the concentration for a half-maximal effect (EC50) was less than 100 nM.

`CC(C)C[C@@H](C(=O)N1C[C@]2(C[C@H]1C#N)C(=O)Nc1ccccc12)N(C)C(=O)c1cc2ccccc2o1` [Example 208]: the EC50 was less than 100 nM.

`COc1ccc(C(=O)N(C)[C@@H](CC(C)C)C(=O)N2C[C@]3(C[C@H]2C#N)C(=O)Nc2ccccc23)nc1` [Example 193] showed an EC50 of less than 100 nM.

`CC(C)C[C@@H](C(=O)N1C[C@]2(C[C@H]1C#N)C(=O)Nc1ccccc12)N(C)C(=O)c1cc(OC2CC2)c2nc(Cl)ccc2c1` [Example 310] yielded a concentration giving a half-maximal response (EC50) of 100 to 1000 nM.

In the case of `CC(C)C[C@@H](C(=O)N1C[C@]2(C[C@H]1C#N)C(=O)Nc1ccccc12)N(C)C(=O)c1cccc(-c2cccc(Cl)c2)c1` [Example 266], the EC50 is less than 100 nM.

Turning to `CCN(C(=O)OCc1ccccc1)[C@@H](CC(C)C)C(=O)N1C[C@]2(C[C@H]1C#N)C(=O)Nc1ccccc12` [Compound 90], the concentration for a half-maximal effect (EC50) lay within 100 to 1000 nM.

Molecule `CC(C)C[C@@H](C(=O)N1C[C@]2(C[C@H]1C#N)C(=O)Nc1ccccc12)N(C)C(=O)c1cc(F)c2nn(C3CC3)cc2c1` [Example 311] registered an EC50 of less than 100 nM.

As to `CC(C)C[C@@H](C(=O)N1C[C@]2(C[C@H]1C#N)C(=O)Nc1ccccc12)N(C)C(=O)c1cccc2ncccc12` [Example 214], the concentration for a half-maximal effect (EC50) is less than 100 nM.

`COc1cccc2[nH]c(C(=O)N[C@@H](CC(C)C)C(=O)N3C[C@]4(C[C@H]3C(=O)C(=O)NC3CCCCC3)C(=O)Nc3ccccc34)cc12` [Example 33]: the 50% effective concentration (EC50) is greater than 1000 nM.

Take `COc1cccc2[nH]c(C(=O)N[C@@H](CC(C)C)C(=O)N3C[C@]4(C[C@H]3C(=O)C(=O)NC3CC3)C(=O)Nc3ccccc34)cc12` [Example 31]: the EC50 fell in the range of 100 to 1000 nM.

For the molecule `CN(C(=O)c1cc2c(F)cccc2[nH]1)[C@@H](CC(C)(C)C)C(=O)N1C[C@]2(C[C@H]1C#N)C(=O)Nc1ccccc12` [Example 87], the EC50 was less than 100 nM.

For `COc1cccc2[nH]c(C(=O)N(C)[C@@H](CC(C)C)C(=O)N3C[C@]4(C[C@H]3C(=O)C(=O)NC3CCCCC3)C(=O)Nc3ccccc34)cc12` [Example 34], the concentration giving a half-maximal response (EC50) is greater than 1000 nM.

The molecule `CC(C)C[C@@H](C(=O)N1C[C@]2(C[C@H]1C#N)C(=O)Nc1ccccc12)N(C)C(=O)c1nc2ccccc2[nH]1` [Example 205] yielded an EC50 of less than 100 nM.

With `CC(C)C[C@H](NC(=O)c1cc2c(F)cccc2[nH]1)C(=O)N1C[C@]2(C[C@H]1C#N)C(=O)Nc1ccccc12` [Example 27], the EC50 is less than 100 nM.

In turn, `CCCC[C@H](NC(=O)[C@@H](O)c1ccc(F)cc1)C(=O)N1C[C@]2(C[C@H]1C#N)C(=O)Nc1ccccc12` [Example 418] registered an EC50 of 100 to 1000 nM.

The molecule `COc1cccc2[nH]c(C(=O)N[C@H](CC3CCCCC3)C(=O)N3C[C@]4(C[C@H]3C#N)C(=O)Nc3ccccc34)cc12` [Example 14] showed an EC50 of less than 100 nM.

On to `CC(C)C[C@@H](C(=O)N1C[C@]2(C[C@H]1C#N)C(=O)Nc1ccccc12)N(C)C(=O)/C=C/c1ccccc1` [Example 228], for which the EC50 was less than 100 nM.

Take `CN(C(=O)OCc1ccccc1)[C@@H](CC1CCC1)C(=O)N1C[C@]2(C[C@H]1C#N)C(=O)Nc1ccccc12` [Example 89]: the 50% effective concentration (EC50) fell in the range of 100 to 1000 nM.

`CC(C)C[C@@H](C(=O)N1C[C@]2(C[C@H]1C#N)C(=O)Nc1ccccc12)N(C)C(=O)c1cc(-c2ccccc2)ccc1Cl` [Example 262] gave a concentration giving a half-maximal response (EC50) of 100 to 1000 nM.

The molecule `CC(C)(F)C[C@H](NC(=O)c1ccc(F)cc1F)C(=O)N1C[C@]2(C[C@H]1C#N)C(=O)Nc1ccc(Cl)cc12` [Example 449] showed an EC50 of 100 to 1000 nM.

`CC(C)(C)C[C@H](NC(=O)c1cnn(CC(F)(F)F)c1)C(=O)N1C[C@]2(C[C@H]1C#N)C(=O)Nc1ccccc12` [Example 144] yielded an EC50 of less than 100 nM.

`[2H]C([2H])([2H])N(C(=O)c1cn(-c2ccc(Cl)cc2)nn1)[C@@H](CC(C)(C)C)C(=O)N1C[C@]2(C[C@H]1C#N)C(=O)Nc1ccccc12` [Example 377] registered a concentration giving a half-maximal response (EC50) of less than 100 nM.

On to `CC(C)C[C@@H](C(=O)N1C[C@]2(C[C@H]1C(=O)C(=O)NC1CCCCC1)C(=O)Nc1ccccc12)N(C)C(=O)c1cc2c(F)cccc2[nH]1` [Example 35], for which the EC50 was greater than 1000 nM.

Consider `CC(C)C[C@@H](C(=O)N1C[C@]2(C[C@H]1C#N)C(=O)Nc1ccccc12)N(C)C(=O)c1cc(F)c2nc(C3CC3)c(C(=O)C(F)(F)F)n2c1` [Example 314], for which the EC50 is less than 100 nM.

The molecule `N#C[C@@H]1C[C@@]2(CN1C(=O)[C@H](CC1CC1)NC(=O)OCc1ccccc1)C(=O)Nc1ccccc12` [Example 4] registered a concentration giving a half-maximal response (EC50) of 100 to 1000 nM.

In the case of `Cc1ccc2cc(C(=O)N(C)[C@@H](CC(C)C)C(=O)N3C[C@]4(C[C@H]3C#N)C(=O)Nc3ccccc34)ccc2n1` [Example 234], the EC50 was less than 100 nM.

With `CC(C)C[C@@H](C(=O)N1C[C@]2(C[C@H]1C#N)C(=O)Nc1ccccc12)N(C)C(=O)c1sc2cc(F)ccc2c1Cl` [Example 43], the EC50 was less than 100 nM.

`N#C[C@@H]1C[C@@]2(CN1C(=O)[C@H](COCc1cnn[nH]1)NC(=O)c1cc3c(F)cc(F)cc3[nH]1)C(=O)Nc1ccccc12` [Example 129] had a concentration giving a half-maximal response (EC50) greater than 1000 nM.

`CC(C)C[C@@H](C(=O)N1C[C@]2(C[C@H]1C#N)C(=O)Nc1ccccc12)N(C)C(=O)c1ccc(Cl)cc1Cl` [Example 168]: the EC50 is less than 100 nM.
